Test results published in PMC10265003 (Royal Society Open Science, 2023).
Read-outs that look alike come from different tables or passages of the source. Positions of bridges follow the written chain, without caps; N, C: chain ends. Non-standard residues stand in square brackets, D forms with d. Residues, ends and D or L forms follow the SMILES beside them. Chains are numbered I, II in the order given. Bpa = N[C@@H](Cc1ccc(C(=O)c2ccccc2)cc1)C(=O)O; Dip = N[C@H](C(=O)O)C(c1ccccc1)c1ccccc1; Ahx = NCCCCCC(=O)O

System: MCF-7 breast cancer line
Type: cell-based, human
Experimental: The MTT assay was performed in accordance with previous reports. Briefly, the cells were seeded with a complete medium in 96-well plates at a rate of 10 000 cells and 100 µl per well, and adhesion to the plates was allowed for 24 h. Later, the complete medium was removed, and an incomplete medium was added for synchronization for another 24 h. The cells were then incubated at 37°C for 2 h with 100 µl of peptide at the evaluated concentrations (200, 100, 50, 25, 12.5 and 6.25 µg ml^−1). Next, the peptide was removed from the well and 100 µl of incomplete medium with 10% MTT was added and incubated for 4 h. The medium was replaced with 100 µl of isopropanol, and after 30 min of incubation at 37°C, the absorbance was measured at 575 nm. As a negative control, an incomplete culture medium with 10% MTT was used, and as a positive control, cells without MTT treatment were used. The IC50 value was determined from figure 1 (peptide concentration versus per cent cell viability) using a nonlinear regression model with variable slope and GraphPad Prism 9 statistical analysis software.

`CC(C)C[C@H](NC(=O)[C@H](CCCCN)NC(=O)[C@H](CCCCN)NC(=O)[C@H](Cc1ccc(C(=O)c2ccccc2)cc1)NC(=O)[C@H](CCCNC(=N)N)NC(=O)[C@H](Cc1c[nH]c2ccccc12)NC(=O)[C@H](CCC(N)=O)NC(=O)[C@H](Cc1c[nH]c2ccccc12)NC(=O)[C@H](CCCNC(=N)N)NC(=O)[C@@H](N)CCCNC(=N)N)C(=O)NCC(=O)NCCCC[C@H](NC(=O)CNC(=O)[C@H](CC(C)C)NC(=O)[C@H](CCCCN)NC(=O)[C@H](CCCCN)NC(=O)[C@H](Cc1ccc(C(=O)c2ccccc2)cc1)NC(=O)[C@H](CCCNC(=N)N)NC(=O)[C@H](Cc1c[nH]c2ccccc12)NC(=O)[C@H](CCC(N)=O)NC(=O)[C@H](Cc1c[nH]c2ccccc12)NC(=O)[C@H](CCCNC(=N)N)NC(=O)[C@@H](N)CCCNC(=N)N)C(=O)NCCCCCC(N)=O` [^26[Bpa], (RRWQWR-Bpa-KKLG)2-K-Ahx] (I: H-RRWQWR[Bpa]KKLGK[Ahx]-NH2 / II: H-RRWQWR[Bpa]KKLG; amide I:12-II:C) was tested, and the IC50 (MTT, MCF-7, peptide treatment for 2 hours at 37°C, three independent experiments with n = 4, nonlinear regression, read-out: IC50) was 17 µM.
In the case of `CC(C)C[C@H](NC(=O)[C@H](CCCCN)NC(=O)[C@H](CCCCN)NC(=O)[C@@H](NC(=O)[C@H](CCCNC(=N)N)NC(=O)[C@H](Cc1c[nH]c2ccccc12)NC(=O)[C@H](CCC(N)=O)NC(=O)[C@H](Cc1c[nH]c2ccccc12)NC(=O)[C@H](CCCNC(=N)N)NC(=O)[C@@H](N)CCCNC(=N)N)C(c1ccccc1)c1ccccc1)C(=O)NCC(=O)NCCCC[C@H](NC(=O)CNC(=O)[C@H](CC(C)C)NC(=O)[C@H](CCCCN)NC(=O)[C@H](CCCCN)NC(=O)[C@@H](NC(=O)[C@H](CCCNC(=N)N)NC(=O)[C@H](Cc1c[nH]c2ccccc12)NC(=O)[C@H](CCC(N)=O)NC(=O)[C@H](Cc1c[nH]c2ccccc12)NC(=O)[C@H](CCCNC(=N)N)NC(=O)[C@@H](N)CCCNC(=N)N)C(c1ccccc1)c1ccccc1)C(=O)NCCCCCC(N)=O` [^26[Dip], (RRWQWR-Dip-KKLG)2-K-Ahx] (I: H-RRWQWR[Dip]KKLGK[Ahx]-NH2 / II: H-RRWQWR[Dip]KKLG; amide I:12-II:C), the IC50 (2 h) is reported as 34 µM.
